Article PMC9728307 (Journal of Microbiology and Biotechnology, 2020)
pIC50: −log10 of the molar value. Counter-ions that a name gives are not always drawn. Like-named read-outs stand apart in the source and are kept apart here. *1 amine or outer side, *2 acyl side, *3 side chain or, on linkers, in order; H or OH if unused. Where a SMILES comes first, the peptide text is derived from it. Bridges are numbered along the chain shown (N, C = ends). [ ]: non-standard residue; d: D form. The star is where a group is joined. hTyr(3S-OH,4S-OH,3'-OSO3H) = N[C@H](C(=O)O)[C@H](O)[C@@H](O)c1ccc(O)c(OS(=O)(=O)O)c1; Orn(4R-OH,5R-OH) = O=C([C@H](C[C@@H](O)[C@@H](O)N[*:3])N[*:1])[*:2]; Pro(3S-OH,4S-Me) = C[C@H]1CN[C@H](C(=O)O)[C@H]1O; X1 = CCCCCOc1ccc(-c2cc(-c3ccc(C(=O)*)cc3)no2)cc1; Gln(3R-OH) = NC(=O)C[C@@H](O)[C@H](N)C(=O)O; Hyp = O=C(O)[C@@H]1C[C@@H](O)CN1

Assays:
in vitro = conditions: African green monkey, CC50 cell toxicity
SARS-CoV-2 [1] = experiment: microbe, parasite or virus in culture; assay type: cell-based; conditions: for Selectivity Index (SI): CC50/IC50
SARS-CoV-2 [2] = experiment: Viral RNA by real-time RT-PCR with primer sets specific to N gene; assay type: cell-based; conditions: virus-infected cells treated with drug
Method: Bromhexine hydrochloride is an inhibitor of TMPRSS2, a cofactor of SARS-CoV-2 entry, and one group reported that the drug was effective on COVID-19 patients in a clinical trial. To further investigate whether bromhexine hydrochloride could inhibit SARS-CoV-2 replication, viral RNA was measured by real-time RT-PCR using primer sets specific to N gene of SARS-CoV-2.
Fig. 4 Suppression of SARS-CoV-2 replication by bromhexine hydrochloride. Cellular RNAs were isolated from cells infected by SARS-COV-2 and treated with bromhexine hydrochloride. The level of viral RNA was measured by real-time RT-PCR using primer sets specific to N gene of SARS-CoV-2.

Vero cells = conditions: read-out: CC50 cell toxicity, MTS, no virus, compounds from secondary screening
SARS-CoV-2 [3] = assay type: cell-based; conditions: Vero cells, 20 μM, MOI 0.5, three days after infection, microscopic observation
[4] = Vero cells, MTS, no virus, compounds from primary screening
[5] = Vero cells, MTS, no virus, compounds from secondary screening
[6] = compounds from primary screening
[7] = compounds from secondary screening
[8] = Severe acute respiratory syndrome coronavirus 2, Vero, 24 h, Vero cells, MOI 2, 24 h post-infection, compounds from primary screening, 100 μM to 0.16 μM, read-out: IC50 antiviral activity
[9] = Severe acute respiratory syndrome coronavirus 2, Vero, 24 h, Vero cells, MOI 2, 24 h post-infection, compounds from secondary screening, 0.08–50 μM, read-out: IC50 antiviral activity
[10] = Severe acute respiratory syndrome coronavirus 2, Vero, 24 h, read-out: IC50 antiviral activity
[11] = Vero cells, MOI 2, 24 h post-infection, compounds from secondary screening, 0.08–50 μM, read-out: IC50 antiviral activity

Compound	CC50 at 24 h (in vitro; [4]) [µM]	CC50 at 24 h (in vitro; [5]) [µM]	Selectivity Index (SI) (SARS-CoV-2 [1]; [6])	Selectivity Index (SI) (SARS-CoV-2 [1]; [7])	pIC50 (SARS-CoV-2 [1]; [9])	further results
CCN(CC)Cc1cc(Nc2ccnc3cc(Cl)ccc23)ccc1O [Amodiaquine]	> 100	> 50	>17.2	>10.9	5.34	pIC50 (SARS-CoV-2 [1]; [8]): 5.24
CN1CC2c3ccccc3Oc3ccc(Cl)cc3C2C1 (centres unmarked) [Asenapine]	–	> 50	–	–	–	–
O=C(CCCl)NCc1ccccc1 [Beclamide]	> 100	–	>1.4	–	–	pIC50 (SARS-CoV-2 [1]; [10]): 4.14
CN(Cc1cc(Br)cc(Br)c1N)C1CCCCC1 [Bromhexine hydrochloride]	–	> 50	–	>3.5	–	Level of intracellular viral RNA (SARS-CoV-2 [2]): effectively reduced the intracellular RNA; pIC50 (SARS-CoV-2 [1]; [10]): 4.84
CC(C)(C)c1ccc(CN2CCN(C(c3ccccc3)c3ccc(Cl)cc3)CC2)cc1 (centres unmarked) [Buclizine]	> 100	–	>5.1	–	–	pIC50 (SARS-CoV-2 [1]; [8]): 4.71
Cc1ccc(-c2cc(C(F)(F)F)nn2-c2ccc(S(N)(=O)=O)cc2)cc1 [Celecoxib]	74.8	–	4.3	–	–	pIC50 (SARS-CoV-2 [1]; [8]): 4.76
CCCCOc1cc(C(=O)NCCN(CC)CC)c2ccccc2n1 [Dibucaine hydrochloride]	–	–	–	>2.3	4.67	CC50 at 24 h (in vitro): > 50 µM
CN1CCC(OC(c2ccccc2)c2ccccc2)CC1 [Diphenylpyraline hydrochloride]	–	> 50	–	>1.2	4.37	–
CC1=NN(c2ccc(C)c(C)c2)C(=O)/C1=N\Nc1cccc(-c2cccc(C(=O)O)c2)c1O [Eltrombopag]	–	43.8	–	21.9	5.70	–
CCN(CC)C(C)CN1c2ccccc2Sc2ccccc21 (centres unmarked) [Ethopropazine hydrochloride]	–	> 50	–	>2.5	4.69	–
Fc1ccc(C(c2ccc(F)cc2)N2CCN(C/C=C/c3ccccc3)CC2)cc1 [Flunarizine]	> 100	–	–	–	–	–
Cc1ccc(NC(=O)c2ccc(CN3CCN(C)CC3)cc2)cc1Nc1nccc(-c2cccnc2)n1 [Imatinib]	–	> 50	–	–	–	–
COc1ccc(CN2CCN(C(c3ccc(F)cc3)c3ccc(F)cc3)CC2)c(OC)c1OC [Lomerizine]	–	–	>7.8	–	–	CC50 at 24 h (in vitro): > 100 µM; pIC50 (SARS-CoV-2 [1]; [8]): 4.89
CN(C)C(=O)C(CCN1CCC(O)(c2ccc(Cl)cc2)CC1)(c1ccccc1)c1ccccc1 [Loperamide hydrochloride]	–	> 50	–	–	–	–
CCCCc1nc(Cl)c(CO)n1Cc1ccc(-c2ccccc2-c2nn[nH]n2)cc1 [Losartan]	> 100	–	>1.4	–	–	pIC50 (SARS-CoV-2 [1]; [8]): 4.14
Cc1ccc(NC(=O)c2ccc(CN3CCN(C)CC3)cc2)cc1Nc1nc(-c2cccnc2)cs1 [Masitinib]	–	47.1	–	3.2	–	pIC50 (SARS-CoV-2 [1]; [10]): 4.83
Cc1cccc(CN2CCN(C(c3ccccc3)c3ccc(Cl)cc3)CC2)c1 (centres unmarked) [Meclizine]	> 100	–	>17.9	–	–	pIC50 (SARS-CoV-2 [1]; [8]): 5.25
CCCCCOc1ccc(-c2cc(-c3ccc(C(=O)N[C@H]4C[C@@H](O)[C@@H](O)NC(=O)[C@@H]5[C@@H](O)[C@@H](C)CN5C(=O)[C@H]([C@H](O)CC(N)=O)NC(=O)[C@H]([C@H](O)[C@@H](O)c5ccc(O)c(OS(=O)(=O)O)c5)NC(=O)[C@@H]5C[C@@H](O)CN5C(=O)[C@H]([C@@H](C)O)NC4=O)cc3)no2)cc1 [Micafungin] (X1-[Orn(4R-OH,5R-OH)]T[Hyp][hTyr(3S-OH,4S-OH,3'-OSO3H)][Gln(3R-OH)][Pro(3S-OH,4S-Me)]; lactam 1-C)	> 100	> 50	>18.1	>3.9	–	pIC50 (SARS-CoV-2 [1]; Severe acute respiratory syndrome coronavirus 2, Vero, 24 h, read-out: IC50 antiviral activity, Vero cells, MOI 2, 24 h post-infection, compounds from primary screening, 100 μM to 0.16 μM): 5.26; pIC50 (SARS-CoV-2 [1]; Severe acute respiratory syndrome coronavirus 2, Vero, 24 h, read-out: IC50 antiviral activity, Vero cells, MOI 2, 24 h post-infection, compounds from secondary screening, 0.08–50 μM): 4.89
C=C[C@@]1(C)CC(=O)[C@]2(O)[C@@]3(C)[C@@H](O)CCC(C)(C)[C@@H]3[C@H](OC(=O)CCN(C)C)[C@H](OC(C)=O)[C@@]2(C)O1 [NKH 477]	–	–	–	–	–	pIC50 (SARS-CoV-2 [1]; [11]): 4.90; CC50 (Vero cells): > 50 µM
CC(CN1c2ccccc2Sc2ccccc21)N(C)C (centres unmarked) [Promethazine hydrochloride]	–	> 50	–	>2.6	4.72	–
C=C[C@H]1C[N@@]2CC[C@H]1C[C@@H]2[C@@H](O)c1ccnc2ccc(OC)cc12 [Quinidine gluconate]	–	> 50	–	>2.1	4.62	–
CCC(CC)COC(=O)[C@H](C)N[P@](=O)(OC[C@H]1O[C@@](C#N)(c2ccc3c(N)ncnn23)[C@H](O)[C@@H]1O)Oc1ccccc1 [Remdesivir]	> 100	> 50	>20	>10	5.30	pIC50 (SARS-CoV-2 [1]; Severe acute respiratory syndrome coronavirus 2, Vero, 24 h, Vero cells, 2 MOI, 24 h post-infection, calibration of the assay with reference compound (Fig. 1), read-out: IC50 antiviral activity): 5.22; pIC50 (SARS-CoV-2 [1]; [8]): 5.30; Inhibition of viral CPE (SARS-CoV-2 [3]): complete absence of CPE
COC(=O)[C@H]1[C@H]2C[C@@H]3c4[nH]c5cc(OC)ccc5c4CCN3C[C@H]2C[C@@H](OC(=O)c2cc(OC)c(OC)c(OC)c2)[C@@H]1OC [Reserpine]	–	> 50	–	>1.7	4.53	–
CC[C@@H](C(=O)[C@@H](C)[C@@H](O)[C@H](C)[C@@H]1O[C@@H]([C@@H](CC)C(=O)O)CC[C@@H]1C)[C@H]1O[C@]2(C=C[C@@H](O)[C@]3(CC[C@@](C)([C@H]4CC[C@](O)(CC)[C@H](C)O4)O3)O2)[C@H](C)C[C@@H]1C [Salinomycin]	56.3	–	97.1	–	–	pIC50 (SARS-CoV-2 [1]; [10]): 6.24
CC(C)N(CCCCOCC(=O)NS(C)(=O)=O)c1cnc(-c2ccccc2)c(-c2ccccc2)n1 [Selexipag]	–	–	–	>5.9	5.07	CC50 at 24 h (in vitro): > 50 µM
CN1CCN(CCCN2c3ccccc3Sc3ccc(S(=O)(=O)N(C)C)cc32)CC1 [Thioproperazine dimesylate]	–	–	–	–	–	pIC50 (SARS-CoV-2 [1]; [11]): 4.87; CC50 (Vero cells): 41 µM
O=C(O)Cc1cc(I)c(Oc2ccc(O)c(I)c2)c(I)c1 [Tiratricol]	–	> 50	–	>10.9	–	pIC50 (SARS-CoV-2 [1]; [10]): 5.34
CCCS(=O)(=O)Nc1ccc(F)c(C(=O)c2c[nH]c3ncc(-c4ccc(Cl)cc4)cc23)c1F [Vemurafenib (PLX4032), Vemurafenib]	–	–	–	>7.1	5.15	CC50 at 24 h (in vitro): > 50 µM
CCOC(=O)C1=C[C@]2(CC)CCCN3CCc4c(n1c1ccccc41)[C@@H]32 [Vinpocetine]	–	> 50	–	>5.8	5.07	–
CC[C@H]1CN2CC[C@H]1C[C@@H]2[C@@H](O)c1ccnc2ccc(OC)cc12 [hydroquinidine]	–	> 50	–	>2.1	4.62	–
